{"source": "patent US11517612B2", "about": "“Methods of treating inflammatory skin disorders” (NEPSONE EHF, priority 2016, dated 2022)", "test_system": "psoriatic lesion(s)", "experiment": "Pre-psoriatic rim topical administration and treatment of psoriasis", "assay_type": "in vivo", "experimental": "In one embodiment, a composition for topical administration was prepared using the peptide CGRP8-37 in a topical formulation at 20 μg/g. The effective range of the peptide in the composition can be between 0.00001 μg/g to […], depending on formulation and measured penetration parameters. The described composition was applied to an area at least partially around the psoriatic lesion(s), termed the pre-psoriatic rim, which was determined using well known laser Doppler flowmetry. […] 10 μg/g of the peptide was applied twice daily for 4 weeks. The composition was purposely not applied directly to the lesion. Without being held to a single theory, a novel local neural transport mechanism appears to be responsible for the effects observed by the pre-psoriatic rim administration resulting in treatment of psoriasis. Topical steroids are usually applied directly on lesions as is the convention for most topical treatments. Topical steroid molecules are much smaller (<500 Da) then CGRP8-37 (3100 Da) and therefore can more easily penetrate thick skin, topical steroids also have a side-effect on normal skin causing skin atrophy in some cases. That is why, for steroids and some other topical remedies e.g. tar (being irritating to normal skin), applying around the lesion is not recommended. […]", "note": "Where no end group is shown, it is not given here.", "data": [{"substance": "CGRP8-37: CGRP derivative peptide, high affinity CGRP receptor antagonist; sequence SEQ ID NO:1 or SEQ ID NO:2; used in topical formulation (VTHRLAGLLSRSGGVVKNNFVPTNVGSKAF; ends and bridges not checked; UniProt P06881 90-119, looked up, fragment)", "values": [{"measurement": "improvement at low dosage", "setting": "applied around the lesion, doses as low as 1 μg/g of topical formulation", "result": "significant improvement"}, {"measurement": "response of psoriatic lesion (plaque on right shoulder, FIGS. 8-10)", "setting": "topical composition applied to pre-psoriatic rim, not directly to the lesion, 10 μg/g of the peptide twice daily for 4 weeks", "result": "clearing completely"}]}]}
